Results from PubChem BioAssay (NCI).
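Grown in 96-well plates, cells were treated for 48 hours with each compound at five concentrations. Insufficient inhibition: endpoint recorded as highest concentration tested. GI50 is the concentration that inhibits growth by half. The concentration for full growth arrest is given as TGI.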

What was measured:
Experiment in all cases: DTP human tumour cell line panel, 48 h
UACC-257 melanoma = test system: UACC-257 melanoma
MDA-MB-231 breast = test system: MDA-MB-231 breast
MCF7 breast = test system: MCF7 breast
OVCAR-5 ovarian = test system: OVCAR-5 ovarian
SF-295 CNS = test system: SF-295 CNS
SR leukemia = test system: SR leukemia
LOX IMVI melanoma = test system: LOX IMVI melanoma
NCI-H522 lung = test system: NCI-H522 lung
SN12C renal = test system: SN12C renal
HOP-62 NSCLC = test system: HOP-62 NSCLC
DU-145 prostate = test system: DU-145 prostate
SK-MEL-28 melanoma = test system: SK-MEL-28 melanoma
OVCAR-8 ovarian = test system: OVCAR-8 ovarian
SK-OV-3 ovarian = test system: SK-OV-3 ovarian
SF-539 CNS = test system: SF-539 CNS
HCC-2998 colon = test system: HCC-2998 colon
PC-3 prostate = test system: PC-3 prostate
NCI/ADR-RES ovarian = test system: NCI/ADR-RES ovarian
OVCAR-3 ovarian = test system: OVCAR-3 ovarian
A498 renal = test system: A498 renal
MDA-MB-435 = test system: MDA-MB-435
SF-268 CNS = test system: SF-268 CNS
TK-10 renal = test system: TK-10 renal
BT-549 breast = test system: BT-549 breast
SW-620 colon = test system: SW-620 colon
ACHN renal = test system: ACHN renal
HS 578T breast = test system: HS 578T breast
M14 melanoma = test system: M14 melanoma
A549 NSCLC = test system: A549 NSCLC
HT29 colon = test system: HT29 colon
COLO 205 colon = test system: COLO 205 colon
U251 CNS = test system: U251 CNS
NCI-H226 lung = test system: NCI-H226 lung
786-0 renal = test system: 786-0 renal
T-47D breast = test system: T-47D breast
HCT-116 colon = test system: HCT-116 colon
HCT-15 colon = test system: HCT-15 colon
SNB-19 CNS = test system: SNB-19 CNS
HL-60(TB) leukemia = test system: HL-60(TB) leukemia
OVCAR-4 ovarian = test system: OVCAR-4 ovarian
UACC-62 melanoma = test system: UACC-62 melanoma
SK-MEL-5 melanoma = test system: SK-MEL-5 melanoma
KM12 colon = test system: KM12 colon
NCI-H23 lung = test system: NCI-H23 lung
NCI-H460 lung = test system: NCI-H460 lung
MOLT-4 leukemia = test system: MOLT-4 leukemia
MALME-3M melanoma = test system: MALME-3M melanoma
CCRF-CEM leukemia = test system: CCRF-CEM leukemia
SK-MEL-2 melanoma = test system: SK-MEL-2 melanoma
K-562 leukemia = test system: K-562 leukemia
UO-31 renal = test system: UO-31 renal
RXF 393 renal = test system: RXF 393 renal
CAKI-1 renal = test system: CAKI-1 renal
IGROV1 ovarian = test system: IGROV1 ovarian
HOP-92 NSCLC = test system: HOP-92 NSCLC
SNB-75 CNS = test system: SNB-75 CNS
RPMI-8226 leukemia = test system: RPMI-8226 leukemia

For COc1cccc(C(=O)c2sc(Nc3ccc(N4CCN(C(C)C)CC4)cc3)nc2N)c1, the GI50 (UACC-257 melanoma) was 3.03 µM, the TGI (UACC-257 melanoma) was 6.34 µM and the GI50 (MDA-MB-231 breast) was 1.84 µM. For the same molecule, the TGI (MDA-MB-231 breast) was > 19.8 µM, the GI50 (MCF7 breast) was 0.473 µM and the TGI (MCF7 breast) was 3.38 µM. For the same molecule, the GI50 (OVCAR-5 ovarian) was 0.769 µM, the TGI (OVCAR-5 ovarian) was > 22.4 µM and the GI50 (SF-295 CNS) was 2.55 µM. The TGI (SF-295 CNS) was 8.83 µM, the GI50 (SR leukemia) was 0.478 µM and the TGI (SR leukemia) was > 7.24 µM. The GI50 (LOX IMVI melanoma) was 1.22 µM, the TGI (LOX IMVI melanoma) was 4.88 µM and the GI50 (NCI-H522 lung) was 3.94 µM. The TGI (NCI-H522 lung) was 7.86 µM, the GI50 (SN12C renal) was 0.895 µM and the TGI (SN12C renal) was 13.8 µM. The GI50 (HOP-62 NSCLC) was 1.57 µM, the TGI (HOP-62 NSCLC) was 11.9 µM and the GI50 (DU-145 prostate) was 1.14 µM. For the same molecule, the TGI (DU-145 prostate) was > 25 µM, the GI50 (SK-MEL-28 melanoma) was 1.85 µM and the TGI (SK-MEL-28 melanoma) was 7.05 µM. It also gave a GI50 (OVCAR-8 ovarian) of 1.49 µM, a TGI (OVCAR-8 ovarian) of 24.8 µM and a GI50 (SK-OV-3 ovarian) of 5.91 µM. For the same molecule, the TGI (SK-OV-3 ovarian) was > 24.1 µM, the GI50 (SF-539 CNS) was 1.55 µM and the TGI (SF-539 CNS) was 4.65 µM. The GI50 (HCC-2998 colon) was 3.39 µM, the TGI (HCC-2998 colon) was 10.7 µM and the GI50 (PC-3 prostate) was 0.892 µM. For the same molecule, the TGI (PC-3 prostate) was 10.9 µM, the GI50 (NCI/ADR-RES ovarian) was 2.46 µM and the TGI (NCI/ADR-RES ovarian) was > 22.9 µM. For the same molecule, the GI50 (OVCAR-3 ovarian) was 1.52 µM, the TGI (OVCAR-3 ovarian) was 9.18 µM and the GI50 (A498 renal) was 2.33 µM. For the same molecule, the TGI (A498 renal) was 8.24 µM, the GI50 (MDA-MB-435) was 1.63 µM and the TGI (MDA-MB-435) was 5.68 µM. The GI50 (SF-268 CNS) was 1.52 µM, the TGI (SF-268 CNS) was 5.06 µM and the GI50 (TK-10 renal) was 1.34 µM. For the same molecule, the TGI (TK-10 renal) was 9.19 µM, the GI50 (BT-549 breast) was 3.62 µM and the TGI (BT-549 breast) was 7.55 µM. The GI50 (SW-620 colon) was 0.853 µM, the TGI (SW-620 colon) was > 13.1 µM and the GI50 (ACHN renal) was 0.596 µM. For the same molecule, the TGI (ACHN renal) was > 25 µM, the GI50 (HS 578T breast) was 2.42 µM and the TGI (HS 578T breast) was 11.4 µM. For the same molecule, the GI50 (M14 melanoma) was 2.96 µM, the TGI (M14 melanoma) was 7.12 µM and the GI50 (A549 NSCLC) was 1.22 µM. The TGI (A549 NSCLC) was 12.5 µM, the GI50 (HT29 colon) was 0.997 µM and the TGI (HT29 colon) was 12.8 µM. The GI50 (COLO 205 colon) was 0.694 µM, the TGI (COLO 205 colon) was 3.53 µM and the GI50 (U251 CNS) was 0.949 µM. For the same molecule, the TGI (U251 CNS) was 7.1 µM, the GI50 (NCI-H226 lung) was 1.38 µM and the TGI (NCI-H226 lung) was > 22.8 µM. For the same molecule, the GI50 (786-0 renal) was 1.61 µM, the TGI (786-0 renal) was 5.76 µM and the GI50 (T-47D breast) was 2.11 µM. The TGI (T-47D breast) was 13.5 µM, the GI50 (HCT-116 colon) was 0.845 µM and the TGI (HCT-116 colon) was > 25 µM. The GI50 (HCT-15 colon) was 0.962 µM, the TGI (HCT-15 colon) was > 25 µM and the GI50 (SNB-19 CNS) was 1.04 µM. For the same molecule, the TGI (SNB-19 CNS) was > 25 µM, the GI50 (HL-60(TB) leukemia) was 0.661 µM and the TGI (HL-60(TB) leukemia) was 2.73 µM. It also gave a GI50 (OVCAR-4 ovarian) of 3.48 µM, a TGI (OVCAR-4 ovarian) of 16.2 µM and a GI50 (UACC-62 melanoma) of 2.84 µM. For the same molecule, the TGI (UACC-62 melanoma) was 6.21 µM, the GI50 (SK-MEL-5 melanoma) was 1.33 µM and the TGI (SK-MEL-5 melanoma) was 5.21 µM. It also gave a GI50 (KM12 colon) of 0.889 µM, a TGI (KM12 colon) of 7.13 µM and a GI50 (NCI-H23 lung) of 1.42 µM. The TGI (NCI-H23 lung) was 8.01 µM, the GI50 (NCI-H460 lung) was 0.92 µM and the TGI (NCI-H460 lung) was 7.87 µM. The GI50 (MOLT-4 leukemia) was 0.966 µM, the TGI (MOLT-4 leukemia) was 13.1 µM and the GI50 (MALME-3M melanoma) was 3.02 µM. It also gave a TGI (MALME-3M melanoma) of 7.13 µM, a GI50 (CCRF-CEM leukemia) of 0.788 µM and a TGI (CCRF-CEM leukemia) of 4.41 µM. For the same molecule, the GI50 (SK-MEL-2 melanoma) was 1.8 µM, the TGI (SK-MEL-2 melanoma) was 5.49 µM and the GI50 (K-562 leukemia) was 3.22 µM. The TGI (K-562 leukemia) was > 22.1 µM, the GI50 (UO-31 renal) was 1.4 µM and the TGI (UO-31 renal) was 7.16 µM. For the same molecule, the GI50 (RXF 393 renal) was 0.437 µM, the TGI (RXF 393 renal) was 1.12 µM and the GI50 (CAKI-1 renal) was 1.01 µM. For the same molecule, the TGI (CAKI-1 renal) was > 8.2 µM, the GI50 (IGROV1 ovarian) was 2.14 µM and the TGI (IGROV1 ovarian) was > 18.6 µM. It also gave a GI50 (HOP-92 NSCLC) of 0.545 µM, a TGI (HOP-92 NSCLC) of 4.38 µM and a GI50 (SNB-75 CNS) of 2.02 µM. The TGI (SNB-75 CNS) was 5.34 µM, the GI50 (RPMI-8226 leukemia) was 1.34 µM and the TGI (RPMI-8226 leukemia) was 6.52 µM.
